pIC50: −log10 of the molar value. Converted amounts (≈) assume the structure as drawn. Like-named read-outs stand apart in the source and are kept apart here. Values belong to the molecule of their own block, whether it stands above or below them.
Legend:
[1] = Human liver microsome stability test; format: in vitro ADME; conditions: human liver microsomes; for Remaining percentage (%) of compound after incubation for 30 min: 37° C., NADPH; for half-life at 1 µM: human
Description: The human liver microsome stability test was performed by incubating the compound and human liver microsomes in vitro. First, the test compound is prepared as a 10 mM stock solution in DMSO solvent, and then the compound was diluted to 0.5 mM with acetonitrile. Human liver microsomes (Corning) were diluted with PBS and prepared as a microsome/buffer solution, which was used to dilute 0.5 mM of the compound into a working solution. […] A deep-well multiwell plate was taken, 30 μL of the working solution and 15 μL of pre-warmed NADPH solution (6 mM) were sequentially added to each well to initiate a reaction, and the reaction was incubated at 37° C. […] After centrifugation, the supernatant was collected, and added with purified water in a ratio of 1:1 to perform LC-MS/MS detection. […] T1/2 was calculated by using Excel.

Autotaxin (ATX) enzyme = Autotaxin (ATX) enzyme (Homo sapiens (Human), UniProt Q13822); assay: Autotaxin (ATX) enzyme activity inhibition assay (Cayman Autotaxin Inhibitor Screening Assay Kit); format: biochemical; conditions: OD405, 37° C., 30 min; read-out: IC50, inhibitory activity on ATX activity
Description: Subsequently, the 8 concentrations were diluted with Autotaxin Assay buffer (1×) provided in the kit into 19× compound working solutions (DMSO content was 1.9%). The Autotaxin Assay Reagent (10×) was taken out and diluted by 10 times with Autotaxin Assay Buffer (1×). The Autotaxin Substrate was taken out, dissolved by adding 1.2 mL of Autotaxin Assay Buffer (1×), mixed evenly and stood at room temperature.

[2] = biological target: hERG channels (CHO cell line stably expressing hERG) (Homo sapiens (Human), UniProt Q12809); assay: Inhibitory effect on hERG by full-automatic electrophysiological patch clamp QPatch; format: cell-based; conditions: for pIC50: CHO hERG cells, QPatch; for hERG IC50/ATX IC50: ratio of hERG IC50 (μM) to ATX IC50 (nM)
Description: Full-automatic electrophysiological patch clamp QPatch was used to detect the inhibitory effect of compounds on hERG. Cells used in this test were CHO cell line transfected with cDNA of hERG and stably expressing hERG channels (provided by Sophion Bioscience, Denmark), and the cell passage number was P24. The cells were cultured in a medium containing the following components (all purchased from Invitrogen): Ham's F12 medium, inactivated fetal bovine serum (10% (v/v)), hygromycin B (100 μg/ml), and Geneticin (100 μg/ml). CHO hERG cells were grown in a petri dish containing the above-mentioned medium and cultured in an incubator at 37° C. and containing 5% Co2.
The compound to be tested was prepared as a 10 mM stock solution in DMSO solvent, the compound was diluted to 3 mM, 1 mM, 0.3 mM, and 0.1 mM with DMSO, and then the compound was diluted to 30 μM, 10 μM, 3 μM, 1 μM, 0.3 μM and 0.1 μM with the extracellular fluid, so that except that the final concentration of DMSO in the 30 μM compound was 0.3%, the final concentration of DMSO in compound solutions of all other concentrations was 0.1%.
The CHO hERG cells, after being digested and resuspended, were added to the fully automated QPatch system (Sophion, Denmark), and subjected to a test according to the following preset procedure.
After reaching the ruptured whole cell configuration state in the initial stage, the whole cell current was recorded at room temperature (about 25° C.), and the cells were recorded for at least 120 seconds in order to achieve stability. The stable cells were selected for the test. During the whole test, the cell patch clamp was at a voltage of −80 mV, the cell patch clamp voltage was depolarized to +20 mV to activate the hERG potassium channels, and after 2.5 seconds, the cell patch clamp voltage was at −50 mV to eliminate inactivation and generate outward tail current. The peak tail current was used as the value of the hERG current. The voltage mode described above was applied to the cells for electrophysiological tests every 15 seconds. An intracellular liquid containing 0.1% dimethyl sulfoxide (solvent) was added to the cells to establish a baseline, and then the current was allowed to stabilize for 3 min. After the compound solution was added, the cells were kept in the test environment until the effect of the compound reached a steady state or until reaching 4 min. In the test experiments with different concentration gradients of the compound, the compound was added to the clamped cells from low to high concentration. After the compound test was finished, the cells were washed with the extracellular fluid until the current returned to a stable state.
The test data were analyzed by Qpatch analysis software provided by Sophion, Excel, and Graphpad Prism.

[3] = biological target: ATX enzyme activity in human plasma (Homo sapiens (Human), UniProt Q13822); assay: Inhibition test of ATX enzyme activity in human plasma (LPA18:2 formation); format: biochemical; conditions: 37° C., 3 h
Description: Whole blood was collected from healthy volunteers and anticoagulated with heparin. The blood collection tubes were centrifuged at 3,000 rpm for 10 min, and the plasma was taken and stored at −80° C. for use.
The compound was serially diluted with DMSO according to the conventional concentration requirements, and then 3 μL of the diluted compound was added to a 96-well plate, and 147 μL of PBS was added to each well containing 3 μL of the compound. After mixing homogenously, 50 μL of the mixture was removed and added to a new 96-well plate. The human plasma was taken out from the −80° C. refrigerator and thawed through rapid shaking in a 37° C. water bath. 50 μL of the human plasma was taken and added to the 96-well plate containing 50 μL of the diluted compound (the final system was 1% DMSO). The group without the compound was set as the positive control group. The 96-well plate was shaken and mixed uniformly, and incubated at 37° C. for 3 h. A blank group was also provided, and the plasma of the blank group was stored at −80° C. The blank group is provided to determine the baseline concentration of endogenous LPA.
After the incubation was finished, the blank group was thawed on ice and transferred to an incubation plate. Excess acetonitrile containing the internal standard LPA17:0 was added to the incubation plate to precipitate the plasma protein. After vortex centrifugation, the supernatant was taken and diluted, and a peak area of LPA18:2 and a peak area of internal standard LPA17:0 were detected using LC-MSMS mass spectrometry.
According to the inhibition rates of different concentrations of the compound, the IC50 value of the compound, which is related to inhibition of ATX enzyme activity in human plasma, was calculated.

[4] = Pharmacokinetic test in mice; format: in vivo, male ICR mice
Description: (§1) For the in vivo pharmacokinetic test of rats, 6 male SD rats were used, 180-240 g, fasted overnight. […] The blood samples were centrifuged at 8,000 rpm at 4° C. for 6 min, and plasma was collected and stored at −20° C. The plasma at each time point was taken and added with an acetonitrile solution containing internal standard in 3-5 times the amount, vortexed and mixed for 1 min, and centrifuged at 13,000 rpm at 4° C. for 10 min. The supernatant was collected, added and mixed with water in 3 times the amount. An appropriate amount of the mixture was taken for LC-MS/MS analysis. The main pharmacokinetic parameters were analyzed using WinNonlin 7.0 software with non-compartmental model.
For the in vivo pharmacokinetic test of mice, 18 male ICR mice were used, 20-25 g, fasted overnight. Among them, 9 mice were orally administered by gavage (10 mg/kg), bloods of 3 mice were collected at each blood collection time point, and the bloods of the 9 mice were alternately collected. The other 9 mice were intravenously administered with the compound (1 mg/kg), bloods of 3 mice were collected at each blood collection time point, and the bloods of the 9 mice were alternately collected. The rest operations were the same as that of pharmacokinetic test in rats.

[5] = Pharmacokinetic test in rats; format: in vivo, male SD rats; conditions: for AUC(0-t) / clearance / half-life / Vd / Cmax / Tmax: male, SD, rat, plasma; for Vd: read-out: Vz
Description: as §1

[6] = Thermodynamic solubility test; format: physicochemical; conditions: for solubility: thermodynamic from solid
Description: The compound was accurately weighed, and the prepared phosphate buffer (pH 7.4), FeSSIF solution (pH 5.8) and FaSSGF solution (pH 1.6) were added to prepare a solution with a concentration of 4 mg/mL, which was shaken at 1,000 rpm for 1 hour, and then incubated overnight at room temperature. After the incubation, the solution was centrifuged at 12,000 rpm for 10 min to remove undissolved particles, and the supernatant was transferred to a new centrifuge tube. The supernatant was diluted appropriately, then added with an acetonitrile solution containing the internal standard, and quantified using a standard curve prepared with the same matrix.

[7] = test system: idiopathic pulmonary fibrosis model (IPF model) induced by bleomycin; assay: IPF model induced by bleomycin in rats; format: in vivo, male BN rats; conditions: 30 mg/kg orally twice a day; for weight reduction of the animals: 21 days, compared with control compound group, FIG. 1
Description: Using male BN rats, 180-240 g, idiopathic pulmonary fibrosis model (IPF model) was induced with a dose of 5 U/kg bleomycin. […] On the second day after the model was established, the animals were orally administered by gavage twice a day, where the administration group was administered with a dose of 30 mg/kg each time, and the solvent control group was administered with a blank solvent, and the administration continued for 21 days. During the administration, the body weight was weighed every three days. On day 21 of administration, alveolar lavage was conducted 2 h after the first administration, the inflammatory cells in the lavage fluid were counted, and the associated biomarkers in the supernatant of the lavage fluid were detected. After lavage, the left lungs of the rats were fixed, and stained with Masson's trichrome staining to score the fibrosis pathology. The remaining lung lobes were cryopreserved. The supernatant of the alveolar lavage fluid and the freshly frozen lung tissue of the three compound groups were taken and detected for a content of TGF-β1 protein and an amount of total protein by using ELISA, and the amount of TGF-β1 per milligram of total protein was calculated.

[8] = cited from earlier work; for probability of discontinuation due to serious adverse events: patients taking the drug, Maher et al. 2019
[9] = male, ICR, mouse, plasma, intravenous administration 1 mg/kg
[10] = male, ICR, mouse, plasma, oral administration by gavage 10 mg/kg
[11] = intravenous administration 1 mg/kg
[12] = oral administration by gavage 10 mg/kg
[13] = FaSSGF solution, fassgf or other biorelevant, FaSSGF, pH 1.6, thermodynamic, read-out: Dissolubility FaSSGF (pH 1.6)
[14] = FeSSIF solution, FeSSIF, pH 5.8, thermodynamic, read-out: Dissolubility FeSSIF (pH 5.8)
[15] = phosphate buffered saline, aqueous buffer, PBS, pH 7.4, thermodynamic, read-out: Dissolubility PBS (pH 7.4)
[16] = day 21, compared with solvent control group, FIG. 2

hERG channels (CHO cell line stably expressing hERG), sequence (Q12809 whole entry): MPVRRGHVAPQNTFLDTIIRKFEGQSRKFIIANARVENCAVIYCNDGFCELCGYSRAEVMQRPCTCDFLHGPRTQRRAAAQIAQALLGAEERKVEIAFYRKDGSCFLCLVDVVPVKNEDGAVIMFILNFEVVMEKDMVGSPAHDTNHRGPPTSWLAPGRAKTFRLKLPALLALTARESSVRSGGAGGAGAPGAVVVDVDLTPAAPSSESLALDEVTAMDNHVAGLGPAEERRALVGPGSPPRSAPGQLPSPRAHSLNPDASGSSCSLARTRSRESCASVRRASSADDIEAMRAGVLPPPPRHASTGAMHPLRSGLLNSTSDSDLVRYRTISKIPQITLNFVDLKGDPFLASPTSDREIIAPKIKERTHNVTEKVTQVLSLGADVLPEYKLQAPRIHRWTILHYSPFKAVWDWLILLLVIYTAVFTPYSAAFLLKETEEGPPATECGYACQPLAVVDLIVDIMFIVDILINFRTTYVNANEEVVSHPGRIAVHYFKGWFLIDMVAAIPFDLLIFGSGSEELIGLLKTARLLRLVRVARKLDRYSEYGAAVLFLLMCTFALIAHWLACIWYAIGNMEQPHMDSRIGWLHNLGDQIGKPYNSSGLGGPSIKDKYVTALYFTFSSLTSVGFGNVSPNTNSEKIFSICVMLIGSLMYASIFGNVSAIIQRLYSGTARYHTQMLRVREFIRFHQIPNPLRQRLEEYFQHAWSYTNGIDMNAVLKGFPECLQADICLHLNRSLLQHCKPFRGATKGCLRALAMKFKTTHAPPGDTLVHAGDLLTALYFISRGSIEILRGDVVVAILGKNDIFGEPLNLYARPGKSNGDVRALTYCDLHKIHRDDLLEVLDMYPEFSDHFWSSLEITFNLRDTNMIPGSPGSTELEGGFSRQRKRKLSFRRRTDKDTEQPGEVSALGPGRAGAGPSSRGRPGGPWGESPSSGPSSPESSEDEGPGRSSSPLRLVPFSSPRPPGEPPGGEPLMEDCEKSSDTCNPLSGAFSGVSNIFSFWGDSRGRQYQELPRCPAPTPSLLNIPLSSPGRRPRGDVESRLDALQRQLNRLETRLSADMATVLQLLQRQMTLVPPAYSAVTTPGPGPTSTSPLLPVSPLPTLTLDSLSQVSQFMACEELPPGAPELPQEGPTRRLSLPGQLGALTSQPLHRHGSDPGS

- Remaining percentage (%) of compound after incubation for 30 min [1]: 87.4%
- pIC50 (Autotaxin (ATX) enzyme): 8.37
Structure (SMILES): CC(OCCc1c[nH]nn1)C(=O)N1Cc2cnc(NC3Cc4ccccc4C3)nc2C1 (racemic) [Compound I-1, 2-(2-(1H-1,2,3-triazol-4-yl)ethoxy)-1-(2-((2,3-dihydro-1H-inden-2-yl)amino)-5,7-dihydro-6H-pyrrolo[3,4-d]pyrimidin-6-yl)propan-1-one]
- pIC50 [2]: 4.65
- hERG IC50/ATX IC50 [2]: 22.3/4.24 = 5.26

- pIC50 [3]: 7.92
- AUC(0-t) [4, 9]: 495 ng·h/mL
- clearance [4, 9]: 34.8 mL/min/kg
- half-life [4, 9]: 22.2 min
- Vd ([4]; male, ICR, mouse, plasma, intravenous administration 1 mg/kg, read-out: Vz): 1.05 L/kg
- AUC(0-t) [4, 10]: 6120 ng·h/mL
- Cmax [4, 10]: 6940 ng/mL
- Tmax [4, 10]: 25.2 min
- half-life [4, 10]: 40.2 min
- AUC(0-t) [5, 11]: 828 ng·h/mL
- clearance [5, 11]: 21.3 mL/min/kg
- half-life [5, 11]: 25.8 min
- Vd [5, 11]: 0.76 L/kg
- AUC(0-t) [5, 12]: 6330 ng·h/mL
- Cmax [5, 12]: 3390 ng/mL
- Tmax [5, 12]: 30 min
- half-life [5, 12]: 151 min
- Remaining percentage (%) of compound after incubation for 30 min [1]: 86.0%
- half-life at 1 µM [1]: 123 min
- solubility [6, 13]: 88.5 µg/mL (≈ 211 µM)
- solubility [6, 14]: 20.4 µg/mL (≈ 48.6 µM)
- solubility [6, 15]: 20.4 µg/mL (≈ 48.6 µM)
- pIC50 (Autotaxin (ATX) enzyme): 8.57
Structure (SMILES): C[C@@H](OCCc1c[nH]nn1)C(=O)N1Cc2cnc(NC3Cc4ccccc4C3)nc2C1 [Compound I-1R, (R)-2-(2-(1H-1,2,3-triazol-4-yl)ethoxy)-1-(2-((2,3-dihydro-1H-inden-2-yl)amino)-5,7-dihydro-6H-pyrrolo[3,4-d]pyrimidin-6-yl)propan-1-one]
- pIC50 [2]: 4.66
- hERG IC50/ATX IC50 [2]: 22.0/2.67 = 8.24

- pIC50 (Autotaxin (ATX) enzyme): 7.54
Structure (SMILES): C[C@H](OCCc1c[nH]nn1)C(=O)N1Cc2cnc(NC3Cc4ccccc4C3)nc2C1 [Compound I-1S, (S)-2-(2-(1H-1,2,3-triazol-4-yl)ethoxy)-1-(2-((2,3-dihydro-1H-inden-2-yl)amino)-5,7-dihydro-6H-pyrrolo[3,4-d]pyrimidin-6-yl)propan-1-one]

- pIC50 [3]: 8.68
- AUC(0-t) [5, 11]: 661 ng·h/mL
- clearance [5, 11]: 25.2 mL/min/kg
- half-life [5, 11]: 20.4 min
- Vd [5, 11]: 0.74 L/kg
- AUC(0-t) [5, 12]: 3690 ng·h/mL
- Cmax [5, 12]: 2420 ng/mL
- Tmax [5, 12]: 25.2 min
- half-life [5, 12]: 115 min
- Remaining percentage (%) of compound after incubation for 30 min [1]: 42.9%
- half-life at 1 µM [1]: 26.6 min
- solubility [6, 13]: 1240 µg/mL (≈ 2960 µM)
- solubility [6, 15]: 73.6 µg/mL (≈ 175 µM)
- pIC50 (Autotaxin (ATX) enzyme): 8.85
Structure (SMILES): C[C@@H](Cc1cnn[nH]1)OCC(=O)N1Cc2cnc(NC3Cc4ccccc4C3)nc2C1 [Compound I-2S, (S)-2-((1-(1H-1,2,3-triazol-5-yl)propan-2-yl)oxy)-1-(2-((2,3-dihydro-1H-inden-2-yl)amino)-5,7-dihydro-6H-pyrrolo[3,4-d]pyrimidin-6-yl)ethan-1-one]
- weight reduction of the animals [7]: significantly less than that of the control compound group
- pIC50 [2]: 5.06
- hERG IC50/ATX IC50 [2]: 8.87/1.40 = 6.3

- T1/2 [4, 11]: 20.4 min
- T1/2 [4, 12]: 49.8 min
- T1/2 [5, 11]: 27 min
- T1/2 [5, 12]: 78.6 min
- T1/2 [1]: 24.1 min
- Remaining percentage (%) of compound after incubation for 30 min [1]: 41.2%
- Dissolubility FaSSGF (pH 1.6) ([6]; FaSSGF, pH 1.6, thermodynamic): 66.5 μg/mL
- Dissolubility FeSSIF (pH 5.8) ([6]; FeSSIF, pH 5.8, thermodynamic): 18.3 μg/mL
- Dissolubility PBS (pH 7.4) ([6]; PBS, pH 7.4, thermodynamic): 6.3 μg/mL
- thermodynamic solubility (in words) ([6]; simulated gastric juice, simulated intestinal juice, neutral conditions): relatively poor
Structure (SMILES): O=C(COCCc1cnn[nH]1)N1Cc2cnc(NC3Cc4ccccc4C3)nc2C1 [Control compound, reference compound]

Continued, molecule first:

Structure (SMILES): CC(Cc1cnn[nH]1)OCC(=O)N1Cc2cnc(NC3Cc4ccccc4C3)nc2C1 (racemic) [Compound I-2, 2-((1-(1H-1,2,3-triazol-5-yl)propan-2-yl)oxy)-1-(2-((2,3-dihydro-1H-inden-2-yl)amino)-5,7-dihydro-6H-pyrrolo[3,4-d]pyrimidin-6-yl)ethan-1-one]
- pIC50 (Autotaxin (ATX) enzyme): 8.87

Structure (SMILES): C[C@H](Cc1cnn[nH]1)OCC(=O)N1Cc2cnc(NC3Cc4ccccc4C3)nc2C1 [Compound I-2R, (R)-2-((1-(1H-1,2,3-triazol-5-yl)propan-2-yl)oxy)-1-(2-((2,3-dihydro-1H-inden-2-yl)amino)-5,7-dihydro-6H-pyrrolo[3,4-d]pyrimidin-6-yl)ethan-1-one]
- pIC50 [3]: 8.33
- clearance rate (CL) relative to that of the control compound ([5]; fraction of control compound's CL): about ¼
- oral AUC0-t relative to that of the control compound ([5]; oral): 4.2 times
- oral Cmax relative to that of the control compound ([5]; oral): 6.1 times
- Remaining percentage (%) of compound after incubation for 30 min [1]: 63.7%
- half-life at 1 µM [1]: 53.6 min
- weight reduction of the animals [7]: significantly less than that of the control compound group
- content of TGF-β1 in the freshly frozen lung tissue [7, 16]: significantly lower than those of the solvent control group
- content of TGF-β1 in the supernatant of the alveolar lavage fluid [7, 16]: significantly lower than those of the solvent control group
- solubility [6, 13]: 1040 µg/mL (≈ 2470 µM)
- solubility [6, 14]: 260 µg/mL (≈ 620 µM)
- solubility [6, 15]: 107 µg/mL (≈ 255 µM)
- pIC50 [2]: 5.02
- hERG IC50/ATX IC50 [2]: 9.48/1.59 = 6.0

Structure (SMILES): COC(=O)c1ccc2c(c1)NC(=O)/C2=C(\Nc1ccc(N(C)C(=O)CN2CCN(C)CC2)cc1)c1ccccc1 [Nintedanib]
- probability of discontinuation due to serious adverse events [8]: 26.3%
- incidence of gastrointestinal reactions ([8]; patients): ≤ 50%

Structure (SMILES): Cc1ccc(=O)n(-c2ccccc2)c1 [Pirfenidone]
- probability of discontinuation due to serious adverse events [8]: 20.9%

From US12221449B2, “Pyrrolopyrimidine derivative and use thereof” (WUHAN HUMANWELL INNOVATIVE DRUG RESEARCH AND DEVELOPMENT …, priority 2019, dated 2025)
